Each block holds one compound with its values, some of them ahead of it.
Legend:
[1] = target: T1, Glycogen synthase kinase-3 beta (Homo sapiens, UniProt P49841); test: Inhibition of GSK-3beta (unknown origin)
[2] = tested on: PC-12; test: Neuroprotective activity against CORT-induced damage in rat PC-12 cells measured after 24 hrs by MTT assay; assay type: functional, cell-based; settings: PC-12, 24 h
[3] = target: T1, Glycogen synthase kinase-3 beta; test: Binding affinity to full length GST-tagged human recombinant GSK-3beta (1 to 420 residues) expressed in Escherichia coli assessed as inhibition constant
[4] = target: T1, Glycogen synthase kinase-3 beta; test: Inhibition of human wildtype full length GSK-3beta
[5] = target: T1, Glycogen synthase kinase-3 beta; test: Inhibition of full length GST-tagged human recombinant GSK-3beta (1 to 420 residues) expressed in Escherichia coli
[6] = target: T1, Glycogen synthase kinase-3 beta; test: Inhibition of GSK-3beta (unknown origin) incubated for 1 hr by HTRF assay
[7] = target: T1, Glycogen synthase kinase-3 beta; test: Inhibition of human GSK-3beta

T1 sequence (P49841 whole entry): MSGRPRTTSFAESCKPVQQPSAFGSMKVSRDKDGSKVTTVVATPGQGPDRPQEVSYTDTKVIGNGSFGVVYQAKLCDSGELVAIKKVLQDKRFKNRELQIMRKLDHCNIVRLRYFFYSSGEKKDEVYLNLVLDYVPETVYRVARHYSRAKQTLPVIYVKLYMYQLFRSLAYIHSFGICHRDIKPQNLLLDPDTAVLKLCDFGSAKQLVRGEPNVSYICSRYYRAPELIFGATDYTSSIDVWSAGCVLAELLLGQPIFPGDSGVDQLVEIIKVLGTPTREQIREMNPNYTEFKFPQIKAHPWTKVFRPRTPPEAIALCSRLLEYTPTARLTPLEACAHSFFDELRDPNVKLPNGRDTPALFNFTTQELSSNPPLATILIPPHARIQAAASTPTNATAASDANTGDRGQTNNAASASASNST

IC50 [1]: 0.06 nM
Compound: Nc1nc(NCCNc2ncc(-c3ncc[nH]3)c(-c3ccc(Cl)cc3Cl)n2)ccc1[N+](=O)[O-]

IC50 [1]: 8 nM
Compound: CN1CCN(c2ccc(NCCNc3ccc([N+](=O)[O-])c(N)n3)nc2-c2ccc(Cl)cc2Cl)C(=O)C1

Compound: N#C[C@@H](CC1=NN2C(N)=NC(NC3CCCCC3)=NC2N1)C(N)=O (some centres undefined)
EC50 [2]: 3 nM

Ki [3]: 90 nM
Compound: COCCNC(=O)c1nc(-c2ccc(S(=O)(=O)N3C=CN(C)CC3)cc2)cnc1N

IC50 [4]: 54 nM
Compound: COc1ccccc1-c1c2c(nc3[nH]nc(C)c13)CC(C)(C)CC2=O

IC50 [5]: 10 nM
Compound: Nc1ncc(-c2ccc(S(=O)(=O)N3C=COCC3)cc2)nc1C(=O)Nc1cccnc1

IC50 [1]: 36 nM
Compound: O=C(O)C1=CN2C3C(=C(NCCNc4ccccn4)C(F)=CC3C1=O)OCCC21CCC1 (centres undefined)

IC50 [6]: 9 nM
Compound: COCCN1CCC(CNC(=O)c2ncc3ccc(-c4cncc(OC(C)C)c4)cn23)CC1

IC50 [7]: 21 nM
Compound: CC(/C=C1\SC(=S)N(CC(=O)O)C1=O)=C\c1ccccc1

Source: ChEMBL document CHEMBL5325494, “Glycogen synthase kinase-3: A potential target for diabetes” (Bioorg Med Chem, 2023)
